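How tested: cells in 96-well plates exposed to compound for 48 hours at five concentrations. At the GI50, growth is halved.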 Active and inactive are the calls of the source. Cut-off read from the data, not from the text of the source: active = GI50 up to about 1.1 µM and inactive = higher.
How the values were obtained:
Test in all cases: growth of human tumour cells (NCI), 48 h
HCT-116 = test system: HCT-116
Hs-578T = test system: Hs-578T
OVCAR-5 = test system: OVCAR-5
PC-3 = test system: PC-3
SK-MEL-28 = test system: SK-MEL-28
COLO 205 = test system: COLO 205
MDA-MB-231 = test system: MDA-MB-231
OVCAR-8 = test system: OVCAR-8
SNB-19 = test system: SNB-19
TK-10 = test system: TK-10
MDA-N = test system: MDA-N
RPMI-8226 = test system: RPMI-8226
ACHN = test system: ACHN
HOP-62 = test system: HOP-62
SK-OV-3 = test system: SK-OV-3
NCI-H460 = test system: NCI-H460
SF-268 = test system: SF-268
HCT-15 = test system: HCT-15
MCF7 = test system: MCF7
BT-549 = test system: BT-549
HL-60 = test system: HL-60
IGROV-1 = test system: IGROV-1
SW-620 = test system: SW-620
T47D = test system: T47D
NCI/ADR-RES = test system: NCI/ADR-RES
DU-145 = test system: DU-145
KM12 = test system: KM12
OVCAR-3 = test system: OVCAR-3
UACC-62 = test system: UACC-62
A549 = test system: A549
SN12C = test system: SN12C
MOLT-4 = test system: MOLT-4
NCI-H23 = test system: NCI-H23
786-0 = test system: 786-0
K562 = test system: K562
SF-295 = test system: SF-295
NCI-H226 = test system: NCI-H226
A498 = test system: A498
SK-MEL-5 = test system: SK-MEL-5
SR = test system: SR
OVCAR-4 = test system: OVCAR-4
LOX IMVI = test system: LOX IMVI
NCI-H522 = test system: NCI-H522
UACC-257 = test system: UACC-257
Malme-3M = test system: Malme-3M
RXF 393 = test system: RXF 393
M14 = test system: M14
U-251 = test system: U-251
EKVX = test system: EKVX
CAKI-1 = test system: CAKI-1
SF-539 = test system: SF-539
HCC 2998 = test system: HCC 2998
UO-31 = test system: UO-31
CCRF-CEM = test system: CCRF-CEM
SK-MEL-2 = test system: SK-MEL-2
MDA-MB-435 = test system: MDA-MB-435
HT-29 = test system: HT-29
HOP-92 = test system: HOP-92
SNB-75 = test system: SNB-75

## COC(=O)c1cc(NC(=O)Cn2c3ccccc3c3ccccc32)cn1C
HCT-116
  GI50: 46.2 µM (inactive)
Hs-578T
  GI50: 14.2 µM (inactive)
OVCAR-5
  GI50: > 100 µM (inactive)
PC-3
  GI50: 31 µM (inactive)
SK-MEL-28
  GI50: > 100 µM (inactive)
COLO 205
  GI50: 45 µM (inactive)
MDA-MB-231
  GI50: 20.1 µM (inactive)
OVCAR-8
  GI50: 30.1 µM (inactive)
SNB-19
  GI50: 39.4 µM (inactive)
TK-10
  GI50: 49.7 µM (inactive)
MDA-N
  GI50: > 100 µM (inactive)
RPMI-8226
  GI50: 19.5 µM (inactive)
ACHN
  GI50: 33.7 µM (inactive)
HOP-62
  GI50: 25.6 µM (inactive)
SK-OV-3
  GI50: 25.6 µM (inactive)
NCI-H460
  GI50: 57.5 µM (inactive)
SF-268
  GI50: 30.6 µM (inactive)
HCT-15
  GI50: 92.7 µM
MCF7
  GI50: 59 µM (inactive)
BT-549
  GI50: 24.9 µM (inactive)
HL-60
  GI50: > 100 µM (inactive)
IGROV-1
  GI50: 24.3 µM (inactive)
SW-620
  GI50: > 100 µM (inactive)
T47D
  GI50: > 100 µM (inactive)
NCI/ADR-RES
  GI50: 30.3 µM (inactive)
DU-145
  GI50: > 100 µM (inactive)
KM12
  GI50: 38.2 µM (inactive)
OVCAR-3
  GI50: > 100 µM (inactive)
UACC-62
  GI50: 17.1 µM (inactive)
A549
  GI50: 26.7 µM (inactive)
SN12C
  GI50: 55.3 µM (inactive)
MOLT-4
  GI50: 61 µM (inactive)
NCI-H23
  GI50: 39.3 µM (inactive)
786-0
  GI50: 29.7 µM (inactive)
K562
  GI50: 59.2 µM (inactive)
SF-295
  GI50: 26.9 µM (inactive)
NCI-H226
  GI50: 21.6 µM (inactive)
A498
  GI50: > 100 µM (inactive)
SK-MEL-5
  GI50: 65.8 µM (inactive)
SR
  GI50: 49.5 µM (inactive)
OVCAR-4
  GI50: 17.3 µM (inactive)
LOX IMVI
  GI50: 53.3 µM (inactive)
NCI-H522
  GI50: 28.3 µM (inactive)
UACC-257
  GI50: 53.8 µM (inactive)
Malme-3M
  GI50: 30.2 µM (inactive)
RXF 393
  GI50: 39.1 µM (inactive)
M14
  GI50: > 100 µM (inactive)
U-251
  GI50: 26.4 µM (inactive)
EKVX
  GI50: 34 µM (inactive)
CAKI-1
  GI50: 84.5 µM (inactive)
SF-539
  GI50: 23.9 µM (inactive)
HCC 2998
  GI50: 78.9 µM (inactive)
UO-31
  GI50: 25 µM (inactive)
CCRF-CEM
  GI50: 39.3 µM (inactive)
SK-MEL-2
  GI50: 47.9 µM (inactive)
MDA-MB-435
  GI50: 78.5 µM (inactive)
HT-29
  GI50: 49.9 µM (inactive)

## O=c1oc2ccc([N+](=O)[O-])cc2c(Nc2ccc3c(c2)S(=O)(=O)c2ccccc2O3)c1[N+](=O)[O-]
HCT-116
  GI50: 73.5 µM (inactive)
Hs-578T
  GI50: 72.1 µM (inactive)
OVCAR-5
  GI50: > 100 µM (inactive)
PC-3
  GI50: 34.8 µM (inactive)
SK-MEL-28
  GI50: 46.3 µM (inactive)
COLO 205
  GI50: > 100 µM (inactive)
MDA-MB-231
  GI50: 49.7 µM (inactive)
OVCAR-8
  GI50: > 100 µM (inactive)
SNB-19
  GI50: 77.1 µM (inactive)
TK-10
  GI50: > 100 µM (inactive)
MDA-N
  GI50: 68.1 µM (inactive)
RPMI-8226
  GI50: 39 µM (inactive)
ACHN
  GI50: > 100 µM (inactive)
HOP-62
  GI50: 49.9 µM (inactive)
SK-OV-3
  GI50: > 100 µM (inactive)
HOP-92
  GI50: 51.2 µM (inactive)
NCI-H460
  GI50: 98.4 µM (inactive)
SF-268
  GI50: 88.5 µM (inactive)
HCT-15
  GI50: 83 µM
MCF7
  GI50: > 100 µM (inactive)
BT-549
  GI50: 73.1 µM (inactive)
HL-60
  GI50: > 100 µM (inactive)
IGROV-1
  GI50: > 100 µM (inactive)
SW-620
  GI50: 97.7 µM (inactive)
T47D
  GI50: > 100 µM (inactive)
NCI/ADR-RES
  GI50: > 100 µM (inactive)
DU-145
  GI50: > 100 µM (inactive)
KM12
  GI50: > 100 µM (inactive)
OVCAR-3
  GI50: 69.3 µM (inactive)
UACC-62
  GI50: 43.8 µM (inactive)
A549
  GI50: > 100 µM (inactive)
SN12C
  GI50: 80.2 µM (inactive)
MOLT-4
  GI50: 40.1 µM (inactive)
NCI-H23
  GI50: > 100 µM (inactive)
786-0
  GI50: > 100 µM (inactive)
K562
  GI50: 33 µM (inactive)
SF-295
  GI50: 60.4 µM (inactive)
NCI-H226
  GI50: 35.9 µM (inactive)
SK-MEL-5
  GI50: 81.8 µM (inactive)
SR
  GI50: 32.4 µM (inactive)
OVCAR-4
  GI50: > 100 µM (inactive)
LOX IMVI
  GI50: 78.2 µM (inactive)
NCI-H522
  GI50: 87.1 µM (inactive)
UACC-257
  GI50: > 100 µM (inactive)
Malme-3M
  GI50: > 100 µM (inactive)
RXF 393
  GI50: 45.4 µM (inactive)
M14
  GI50: 42.9 µM (inactive)
U-251
  GI50: 57.3 µM (inactive)
EKVX
  GI50: > 100 µM (inactive)
CAKI-1
  GI50: > 100 µM (inactive)
SF-539
  GI50: 46.8 µM (inactive)
SNB-75
  GI50: 73.6 µM (inactive)
HCC 2998
  GI50: 26.5 µM (inactive)
UO-31
  GI50: 53.3 µM (inactive)
CCRF-CEM
  GI50: 38.3 µM (inactive)
SK-MEL-2
  GI50: 52.2 µM (inactive)
MDA-MB-435
  GI50: > 100 µM (inactive)
HT-29
  GI50: 65.9 µM (inactive)

— ChEMBL document CHEMBL1201862, “PubChem BioAssay data set” (2004)
